# Where “and” joins values, the source holds several entries; their conditions need not be identical. Equal entries are not always repeated.
# Legend:
# TRIM24 = biological target: T1, TRIM24 (Homo sapiens, UniProt O15164); test: Liability panel screening by DSF: TRIM24; format: binding; conditions: read-out: Mean ΔTM TRIM24
# T1 construct: This panel comprised ten highly ligandable kinases and bromodomains; made in house
# T1 sequence (O15164 899-1004 limits assumed): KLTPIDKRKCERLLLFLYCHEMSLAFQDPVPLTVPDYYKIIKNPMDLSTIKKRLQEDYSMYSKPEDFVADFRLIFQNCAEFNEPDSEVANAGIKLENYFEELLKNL
# Experimental: (§1) Reference ligands are listed in the methods section.
# (§2) In-house produced recombinantly expressed proteins[62] of the liability panel targets were diluted in a buffer containing 10 mM HEPES (pH 7.5) and 500 mM NaCl to a concentration of 2 µM. SYPRO Orange (Invitrogen, Carlsbad, California, USA; #S6650) as a fluorescence probe was added at a 1:1000 dilution to the proteins. […] Temperature-dependent unfolding profiles were measured on a QuantStudio™ 5 real-time PCR machine (Thermo Fisher Scientific, Waltham, Massachusetts, USA; #A28140). […] The temperature was increased 3 °C per minute to a maximum temperature of 85 °C. Experiments were run as technical duplicates. […] Data were analyzed with the internal Thermal Shift Software (version 1.4, Thermo Fisher Scientific) using the Boltzmann equitation to determine the inflection point of the transition curve. Differences in melting temperature are given as ∆Tm in K. […]
# (§3) scanning fluorimetry (DSF).
# (§4) a concentration of 20 µM.
# HEK293T cells [1] = test: Cytotoxicity: metabolic activity (WST-8 / CCK-8 assay); conditions: 1 µM; HEK293T, 24 h; WST-8; normalized to 0.1% DMSO; single replicates
# CDK2 = biological target: T2, CDK2 (Homo sapiens, UniProt P24941); test: Liability panel screening by DSF: CDK2; format: binding; conditions: read-out: Mean ΔTM CDK2
# T2 construct: made in house
# Experimental: as §1, §2, §3, §4
# BRD4 = biological target: T3, BRD4 (Homo sapiens, UniProt O60885); test: Liability panel screening by DSF: BRD4; format: binding; conditions: read-out: Mean ΔTM BRD4
# T3 construct: This panel comprised ten highly ligandable kinases and bromodomains; made in house
# Experimental: as §1, §2, §3, §4
# HEK293T cells [2] = test: Cytotoxicity: growth-rate (change in confluence over 24 h); conditions: 1 µM, normalized to 0.1% DMSO control, single replicates (n=1...)
# HEK293T cells [3] = test: Cytotoxicity: necrosis induction (red fluorescent dye for permeable plasma membranes); format: cell-based; conditions: 1 µM, 24 h, necrotic cell count normalized to 0.1% DMSO, single replicates;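 further: compounds applied in DMEM high glucose with 0.1% FCS and 0.1% DMSO, necrotic HEK293T cells counted by red staining of cells whose plasma membranes had become permeable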
# FGFR3 = biological target: T4, FGFR3 (Homo sapiens, UniProt P22607); test: Liability panel screening by DSF: FGFR3; format: binding; conditions: read-out: Mean ΔTM FGFR3
# T4 construct: made in house
# Experimental: as §1, §2, §3, §4
# [4] = tested on: ATF6 activity in Hela ATF6 reporter cells; test: Endoplasmic reticulum stress assay (ATF6 Renilla luciferase reporter, tunicamycin); format: cell-based
# Experimental: After 24 h, cells were incubated with the test compounds solubilized with 0.1% DMSO in the same medium without puromycin. After 4 h incubation, tunicamycin (100 ng/mL) was added. After another 18 h incubation, cells were assayed for renilla luminescence using DualGlo reagent (Promega) on a Tecan SPARK Cyto (Tecan). Test samples were normalized to the 0.1% DMSO control. Each sample was repeated in five biologically independent experiments.
# CSNK1D = biological target: T5, CSNK1D (Homo sapiens, UniProt P48730); test: Liability panel screening by DSF: CSNK1D; format: binding; conditions: read-out: Mean ΔTM CSNK1D
# T5 construct: made in house
# Experimental: as §1, §2, §3, §4
# [5] = tested on: NF-κB activity in HEK293 NF-κB reporter cells; test: NF-kB activity assay (GFP reporter, ionomycin/PMA); format: cell-based; conditions: for Mean NFκB response: n=3
# Experimental: Fig. 6 Application of the NR3 CG set.
# After 24 h, cells were incubated with the test compounds solubilized with 0.1% DMSO in the same medium without puromycin. After 4 h incubation, ionomycin (100 ng/mL) and phorbol-12-myristat-13-acetate (PMA, 10 ng/mL) was added, and the cells were imaged for confluence and GFP expression every 90 min. over 24 h using a Tecan SPARK Cyto (Tecan). The number of GFP expressing cells was normalized to confluence in each sample. Each sample was repeated in three biologically independent experiments.
# BRPF1 = biological target: T6, BRPF1 (Homo sapiens, UniProt P55201); test: Liability panel screening by DSF: BRPF1; format: binding; conditions: read-out: Mean ΔTM BRPF1
# T6 construct: This panel comprised ten highly ligandable kinases and bromodomains; made in house
# T6 sequence (P55201 628-732 limits assumed): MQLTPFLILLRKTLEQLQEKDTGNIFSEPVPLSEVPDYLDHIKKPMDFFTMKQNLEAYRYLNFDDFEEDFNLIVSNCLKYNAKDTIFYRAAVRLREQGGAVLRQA
# Experimental: as §1, §2, §3, §4
# HEK293T cells [6] = test: Cytotoxicity: apoptosis induction (caspase-3/7 DEVD fluorogenic DNA dye); conditions: 1 µM; HEK293T, 24 h; apoptotic cell count normalized to 0.1% DMSO; single replicates
# Experimental: Cells were incubated with the test compounds at the indicated concentrations solubilized with 0.1% DMSO for 24 h. Growth-rate was determined based on the change in confluence over 24 h normalized to the change in confluence of cells treated with the 0.1% DMSO control (n = 10). Metabolic activity was determined with a water-soluble tetrazolium-8 (WST-8) assay (n = 8) after 24 h treatment. Apoptotic cells were detected with a fluorogenic DNA dye coupled to the caspase-3/7 recognition sequence (DEVD) after 24 h treatment and the apoptotic cell count was normalized to 0.1% DMSO treated cells (n = 6).
# HEK293T cells (German Collection of Microorganisms and Cell Culture GmbH, DSMZ; #ACC305) were cultured in DMEM high glucose, supplemented with 10% fetal calf serum (FCS), sodium pyruvate (1 mM), penicillin (100 µ/mL) and streptomycin (100 µg/mL) at 37 °C and 5% (v/v) CO2, and seeded in pre-coated (10 µg/mL collagen G solution (Merck KgaA; #L7213) for 30 min at 37 °C) 96-well plates (2 × 10^5 cells per well). After 24 h, the cells were treated with the respective NR3 CG compound candidate at the recommended concentration, bexarotene (100 µM) or doxorubicin (30 µM) as positive controls in DMEM high glucose supplemented with 0.1% FCS, penicillin (100 µ/mL), streptomycin (100 µg/mL) and 0.1% DMSO, or 0.1% DMSO alone as an untreated control. Each sample was prepared in at least four biologically independent replicates. […] Thereafter, the medium was aspirated and the cells were incubated for 3 h with 90 µL DMEM high glucose supplemented with 0.2% FCS, penicillin (100 µ/mL) and streptomycin (100 µg/mL) and additionally containing 10 µL Cell Counting Kit 8 solution (CCK-8; MedChemExpress, Monmouth Junction, New York, USA; #HY-K0301), and absorbance was measured at 1 h, 2 h and 3 h of incubation at 450 nm on a Tecan Spark Cyto to assess metabolic activity of the cells. Before drug administration, after the first medium exchange, 24 h after drug administration, and after fluorescence imaging cell confluence was assessed using the Tecan Spark Cyto, to account for changes in cell confluence due to drug administration and cell handling. Compound effects on cell confluence, apoptosis, metabolic activity and necrosis were normalized to the vehicle control of each biological replicate individually.
# MAPK1 = biological target: T7, MAPK1 (Homo sapiens, UniProt P28482); test: Liability panel screening by DSF: MAPK1; format: binding; conditions: read-out: Mean ΔTM MAPK1
# T7 construct: made in house
# Experimental: as §1, §2, §3, §4
# AURKA = biological target: T8, AURKA (Homo sapiens, UniProt O14965); test: Liability panel screening by DSF: AURKA; format: binding; conditions: read-out: Mean ΔTM AURKA
# T8 construct: made in house
# T8 sequence (O14965 1-403): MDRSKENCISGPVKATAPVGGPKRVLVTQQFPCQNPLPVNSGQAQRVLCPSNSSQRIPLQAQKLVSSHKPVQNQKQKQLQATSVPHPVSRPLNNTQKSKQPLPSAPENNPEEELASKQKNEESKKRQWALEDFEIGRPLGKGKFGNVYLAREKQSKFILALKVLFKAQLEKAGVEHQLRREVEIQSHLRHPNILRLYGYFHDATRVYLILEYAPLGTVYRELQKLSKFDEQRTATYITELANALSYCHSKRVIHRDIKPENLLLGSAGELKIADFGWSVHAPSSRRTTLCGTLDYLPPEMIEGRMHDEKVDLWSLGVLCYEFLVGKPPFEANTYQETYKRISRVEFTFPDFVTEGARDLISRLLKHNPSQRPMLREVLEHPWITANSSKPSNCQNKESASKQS
# Experimental: as §1, §2, §3, §4
# ABL1 = biological target: T9, ABL1 (Homo sapiens, UniProt P00519); test: Liability panel screening by DSF: ABL1; format: binding; conditions: read-out: Mean ΔTM ABL1
# T9 construct: made in house
# Experimental: as §1, §2, §3, §4
# GSK3B = biological target: T10, GSK3B (Homo sapiens, UniProt P49841); test: Liability panel screening by DSF: GSK3B; format: binding; conditions: read-out: Mean ΔTM GSK3B
# T10 construct: made in house
# T10 sequence (P49841 whole entry, species assumed): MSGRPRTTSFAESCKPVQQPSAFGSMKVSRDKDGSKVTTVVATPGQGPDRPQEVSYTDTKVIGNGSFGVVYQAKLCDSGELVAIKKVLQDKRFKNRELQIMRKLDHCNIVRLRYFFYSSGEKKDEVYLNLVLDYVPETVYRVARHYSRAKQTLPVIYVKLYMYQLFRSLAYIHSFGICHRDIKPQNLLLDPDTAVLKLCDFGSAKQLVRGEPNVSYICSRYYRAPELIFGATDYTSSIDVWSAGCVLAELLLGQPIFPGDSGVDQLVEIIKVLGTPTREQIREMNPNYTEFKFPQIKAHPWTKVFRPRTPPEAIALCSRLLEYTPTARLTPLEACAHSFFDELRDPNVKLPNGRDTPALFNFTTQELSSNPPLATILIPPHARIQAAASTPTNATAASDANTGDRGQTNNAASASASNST
# T4 sequence (P22607 23-806, species assumed): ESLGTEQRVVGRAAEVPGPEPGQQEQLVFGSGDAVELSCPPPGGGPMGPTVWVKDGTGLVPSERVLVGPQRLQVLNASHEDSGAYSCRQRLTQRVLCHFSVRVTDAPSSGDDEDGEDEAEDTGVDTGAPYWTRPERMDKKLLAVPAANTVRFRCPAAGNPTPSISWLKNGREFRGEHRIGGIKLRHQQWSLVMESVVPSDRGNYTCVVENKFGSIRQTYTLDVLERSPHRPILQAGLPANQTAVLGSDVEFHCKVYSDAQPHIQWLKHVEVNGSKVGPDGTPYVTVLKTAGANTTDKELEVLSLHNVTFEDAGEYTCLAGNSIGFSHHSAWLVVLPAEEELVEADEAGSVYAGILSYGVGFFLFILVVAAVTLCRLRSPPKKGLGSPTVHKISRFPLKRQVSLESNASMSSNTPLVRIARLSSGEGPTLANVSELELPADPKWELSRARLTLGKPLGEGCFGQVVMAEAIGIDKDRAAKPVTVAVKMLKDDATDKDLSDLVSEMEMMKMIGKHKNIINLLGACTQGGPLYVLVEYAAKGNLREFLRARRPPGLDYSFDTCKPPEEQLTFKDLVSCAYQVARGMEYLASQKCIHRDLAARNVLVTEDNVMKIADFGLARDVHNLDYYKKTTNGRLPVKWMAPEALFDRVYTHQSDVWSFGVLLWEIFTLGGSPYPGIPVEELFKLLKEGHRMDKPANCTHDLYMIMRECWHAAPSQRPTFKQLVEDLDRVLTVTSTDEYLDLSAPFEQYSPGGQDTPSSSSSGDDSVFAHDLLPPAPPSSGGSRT
# T5 sequence (P48730 whole entry, species assumed): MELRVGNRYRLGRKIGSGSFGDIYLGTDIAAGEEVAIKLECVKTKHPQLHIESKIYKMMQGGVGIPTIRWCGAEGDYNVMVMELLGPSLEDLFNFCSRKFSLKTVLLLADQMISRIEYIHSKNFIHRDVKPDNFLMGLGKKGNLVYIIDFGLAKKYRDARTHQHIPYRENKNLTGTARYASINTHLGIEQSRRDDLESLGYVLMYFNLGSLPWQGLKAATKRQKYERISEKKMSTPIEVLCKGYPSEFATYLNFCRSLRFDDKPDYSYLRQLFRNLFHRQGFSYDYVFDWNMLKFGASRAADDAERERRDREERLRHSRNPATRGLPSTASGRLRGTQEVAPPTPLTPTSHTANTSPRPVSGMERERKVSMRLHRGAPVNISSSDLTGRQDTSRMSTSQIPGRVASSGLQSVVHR
# T9 sequence (P00519 whole entry, species assumed): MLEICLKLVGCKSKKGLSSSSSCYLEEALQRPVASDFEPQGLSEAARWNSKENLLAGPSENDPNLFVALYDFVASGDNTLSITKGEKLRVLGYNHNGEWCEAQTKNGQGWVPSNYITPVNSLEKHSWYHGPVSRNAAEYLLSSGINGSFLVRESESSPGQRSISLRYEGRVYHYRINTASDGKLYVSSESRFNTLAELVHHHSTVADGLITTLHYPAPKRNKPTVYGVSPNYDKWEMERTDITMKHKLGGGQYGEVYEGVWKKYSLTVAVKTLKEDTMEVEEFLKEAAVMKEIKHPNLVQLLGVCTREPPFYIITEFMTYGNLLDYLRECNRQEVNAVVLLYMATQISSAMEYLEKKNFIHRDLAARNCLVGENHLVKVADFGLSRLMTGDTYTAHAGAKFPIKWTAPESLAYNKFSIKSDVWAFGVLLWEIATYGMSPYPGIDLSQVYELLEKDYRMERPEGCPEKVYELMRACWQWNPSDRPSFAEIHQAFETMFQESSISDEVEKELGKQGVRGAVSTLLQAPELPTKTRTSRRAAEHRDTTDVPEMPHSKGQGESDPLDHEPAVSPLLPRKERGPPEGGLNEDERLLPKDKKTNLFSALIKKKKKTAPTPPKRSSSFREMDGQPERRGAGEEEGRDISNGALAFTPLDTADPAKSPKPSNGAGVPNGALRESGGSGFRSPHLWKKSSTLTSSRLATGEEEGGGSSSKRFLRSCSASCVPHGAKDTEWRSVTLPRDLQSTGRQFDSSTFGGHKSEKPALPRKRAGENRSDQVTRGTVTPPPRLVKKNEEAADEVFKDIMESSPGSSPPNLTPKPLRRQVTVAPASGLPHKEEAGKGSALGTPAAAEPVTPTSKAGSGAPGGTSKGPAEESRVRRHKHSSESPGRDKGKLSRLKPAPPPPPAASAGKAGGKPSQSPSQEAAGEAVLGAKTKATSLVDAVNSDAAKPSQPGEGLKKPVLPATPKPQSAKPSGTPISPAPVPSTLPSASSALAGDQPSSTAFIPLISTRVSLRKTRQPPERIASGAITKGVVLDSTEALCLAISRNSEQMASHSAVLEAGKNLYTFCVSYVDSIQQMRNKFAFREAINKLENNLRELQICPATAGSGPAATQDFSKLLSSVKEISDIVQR
# T7 sequence (P28482 whole entry, species assumed): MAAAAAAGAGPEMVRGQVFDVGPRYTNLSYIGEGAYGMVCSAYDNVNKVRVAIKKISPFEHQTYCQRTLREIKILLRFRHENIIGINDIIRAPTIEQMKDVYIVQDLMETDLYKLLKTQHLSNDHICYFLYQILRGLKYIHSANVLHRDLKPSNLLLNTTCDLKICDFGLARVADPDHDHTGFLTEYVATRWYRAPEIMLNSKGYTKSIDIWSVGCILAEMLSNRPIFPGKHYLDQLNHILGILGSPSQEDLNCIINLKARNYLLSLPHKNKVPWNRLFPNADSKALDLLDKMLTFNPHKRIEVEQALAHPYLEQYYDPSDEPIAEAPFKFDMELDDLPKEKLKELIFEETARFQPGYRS
compound,measurement,setting,value
O=S(=O)(Cc1ccccc1)Nc1ccc(-c2ccc3c(cnn3-c3ccc(F)cc3)c2)c(C(F)(F)F)c1 [GSK9027],ΔTm at 20 µM,TRIM24,1.36 °C
same,Metabolic activity [MA],HEK293T cells [1],1.03 and 1.01 (3×) and 0.96 and 1.00 and 1.18 and 1.15
same,ΔTm at 20 µM,CDK2,0.1 °C
same,ΔTm at 20 µM,BRD4,1.58 °C
same,Growth rate [GR],HEK293T cells [2],0.54 and 0.80 and 0.72 and 0.98 and 0.70 and 0.66 and 0.84 and 1.89 and 2.05 and 4.10
same,Necrosis induction [NI],HEK293T cells [3],0.93 and 0.78 and 0.76 and 1.05
same,ΔTm at 20 µM,FGFR3,-0.29 °C
same,ATF6 activity (tunicamycin-induced endoplasmic reticulum stress),"[4]; Hela ATF6 reporter cells, tunicamycin 100 ng/mL, 18 h, compounds at recommended concentrations, n = 5",Consistently weaker ATF6 activity
same,activity at 1 µM,"[4]; Homo sapiens, HeLa, 1 µM, single replicates n=1 to n=5, read-out: ER stress [rel. ATF6 activity]",76%
same,ΔTm at 20 µM,CSNK1D,-1.92 °C
same,Mean NFκB response,"[5]; 1 µM, 1,5 h",2917.80 GFP+-cells/confluence ∙ 1000
same,Mean NFκB response,"[5]; 1 µM, 4,5 h",3437.70 GFP+-cells/confluence ∙ 1000
same,Mean NFκB response,"[5]; 1 µM, 7,5 h",4957.90 GFP+-cells/confluence ∙ 1000
same,Mean NFκB response,"[5]; 1 µM, 10,5 h",8098.89 GFP+-cells/confluence ∙ 1000
same,Mean NFκB response,"[5]; 1 µM, 13,5 h",11113.03 GFP+-cells/confluence ∙ 1000
same,Mean NFκB response,"[5]; 1 µM, 16,6 h",13521.21 GFP+-cells/confluence ∙ 1000
same,Mean NFκB response,"[5]; 1 µM, 19,5 h",14898.72 GFP+-cells/confluence ∙ 1000
same,Mean NFκB response,"[5]; 1 µM, 22,5 h",15985.14 GFP+-cells/confluence ∙ 1000
same,Mean NFκB response,"[5]; 1 µM, 3 h",2869.62 GFP+-cells/confluence ∙ 1000
same,Mean NFκB response,"[5]; 1 µM, 6 h",4105.89 GFP+-cells/confluence ∙ 1000
same,Mean NFκB response,"[5]; 1 µM, 9 h",6294.49 GFP+-cells/confluence ∙ 1000
same,Mean NFκB response,"[5]; 1 µM, 12 h",9593.56 GFP+-cells/confluence ∙ 1000
same,Mean NFκB response,"[5]; 1 µM, 15 h",12593.25 GFP+-cells/confluence ∙ 1000
same,Mean NFκB response,"[5]; 1 µM, 18 h",14186.97 GFP+-cells/confluence ∙ 1000
same,Mean NFκB response,"[5]; 1 µM, 21 h",15313.70 GFP+-cells/confluence ∙ 1000
same,Mean NFκB response,"[5]; 1 µM, 24 h",16630.14 GFP+-cells/confluence ∙ 1000
same,NF-κB activity (inflammatory response to ionomycin/PMA),"[5]; HEK293 NF-κB reporter cells, compounds at recommended concentrations, imaged over 24 h, n = 3",consistently delayed and strongly diminished NF-κB activity
same,ΔTm at 20 µM,BRPF1,1.21 °C
same,Apoptosis induction [AI],HEK293T cells [6],0.65 and 1.04 and 0.83 and 0.94 and 0.36 and 0.86
same,ΔTm at 20 µM,MAPK1,-2.07 °C
same,ΔTm at 20 µM,AURKA,1.2 °C
same,ΔTm at 20 µM,ABL1,1.8 °C
same,ΔTm at 20 µM,GSK3B,1.24 °C
